Earlier results, collected in patent publication US20010031747A1, “Progestin therapy for maintaining amenorrhea” (COLUMBIA LABORATORIES (BERMUDA) LIMITED, priority 1997, published 2001).
Read-outs that look alike come from different tables or passages of the source.

What was measured:
endometrium = settings: topical application to the breast
[1] = intramuscular; 100 mg doses
[2] = subdermal, six 100 mg pellets
[3] = nasal
[4] = sublingual

In the case of `CC(=O)[C@H]1CC[C@H]2[C@@H]3CCC4=CC(=O)CC[C@]4(C)[C@H]3CC[C@]12C` [progesterone], the Endometrial effects (endometrium) is listed as “no significant endometrial effects”, the “Time to achieve serum concentrations” value [1] is listed as “two to eight” and the “Mean peak progesterone level” value ([2]; six months after implantation) is listed as 1.9 ng/mL. The Peak progesterone level ([2]; within the first week after insertion) was 4.4 ng/mL, the “Increase over baseline serum levels” value (vaginal suspension 50 mg/ml (carboxymethyl cellulose, methyl cellulose), after 15 minutes) was 10 fold and the “Peak increase over baseline levels” value (vaginal suspension 50 mg/ml, at peak) was “thirty- to forty”. The “Serum level after decline” value (vaginal suspension 50 mg/ml, declining over the next ten hours) was 3.68 ng/mL, the Peak serum level (vaginal suspension 50 mg/ml, maintained over the next seven hours) was 12.25 ng/mL and the Mean maximum concentration ([3]; 20 mg dose) was 2.1 ng/mL. The “Time of mean maximum concentration” value ([3]; 20 mg dose) was “approximately 30 minutes”, the Mean maximum concentration ([3]; 30 mg dose) was 4.1 ng/mL and the “Time of mean maximum concentration” value ([3]; 30 mg dose) was ~240 min. For the same compound, the “Time to return to basal levels” value [4] was “twenty-four”.
